Source: patent publication US11026940B2, “Compositions for the mobilization, homing, expansion and differentiation of stem cells and methods of using the same” (Ampio Pharmaceuticals, Inc., priority 2013, dated 2021)

Legend:
[1] = system: Bone marrow derived human mesenchymal stem cells; assay: Migration (invasion) assay using pretreated stem cells, transwell, calcein AM fluorescence; assay type: cell-based; conditions: for mean FU: cells pretreated 72 hours, migration 24 hours; for FU 1: replicate 1; for FU 2: replicate 2; for FU 3: replicate 3
Protocol: This experiment will be designed to establish if migration of MSC is altered as well.
• Passage 5 Bone marrow derived human mesenchymal stem cells (HUXMA-01001, Cyagen Biosciences, Sunnyvale Calif.) • TheraPEAK MSCGM chemically defined Stem cell medium (190632 Lonza) • Lonza MSGM, Gibco RPMI, Gibco Defined fetal bovine serum. • 10 mM Cobalt chloride in saline, sterile filtered (Sigma) • Saline or 0.9% Sodium chloride for injection ZR Flush (Excelsior Medical, Neptune N.J.) • 0.2 μM syringe filters • Hepes buffered saline, Trypsin/EDTA, Trypsin neutralizing solution (Lonza reagent pack) • 25 and 175 cm^2 tissue culture flasks • pipettes and sterile tips • Tissue culture hood, humidified CO2 incubator, water or bead bath • 8.0 um Thincert tissue culture inserts and 24 well tissue culture plates (Greiner) • 50 μg Calcein AM vials (BD Biosciences) • DMSO (Sigma) Cell Expansion: • Passage 5 HUXMA cells were removed from liquid nitrogen storage and expanded in 175 cm^2 flasks containing 40 mls TheraPEAK MSCGM until 80-90% confluence. • Trypsinize cells using standard protocol and proceed to the next step. Treatment of Cells: • Prepare the following working dilutions in saline for injection from the stocks listed above. • Saline • 800 uM Cobalt Chloride in saline • Neat Ampion • Warm dilutions and Lonza MSCGM to 37° C. in bead bath. • Prepare a cell suspension of HUXMA stem cells in warmed MSCGM medium. • Count and then bring up 250,000 from the cell suspension in 4 mls warmed MSCGM. • Add the diluted cell solution to a 25 cm^2 tissue culture flasks. • Add 1 ml of the appropriate working dilution to the flask. • Incubate at 37° C. and 5% CO2 for 72 hours. Invasion Assay: • Remove the cells from the flask with trypsin and place in 600 μl RPMI+0.5% FBS. • Add 200 μl of the resulting cell suspension to the upper chamber of thinserts (3 inserts per treatment group) resting in a 24 well tissue culture plate. • Add 600 μl RPMI+0.5% FBS to the bottom chamber of the transwell system. • Add 66 μl of one the following solutions to the bottom chamber for each treatment group. • 550 ng/ml SDF (final 50 ng/ml) • 110 ng/ml TGF beta3 (final 10 ng/ml) • Serum (final 10%) • Incubate the plate for 24 hours at 37° C. and 5% CO2. Labeling and Cell Detection. • Remove two calcein AM vials and add 20 μl DMSO. • Transfer the contents of both vials to 12.5 ml RPMI containing 0.2% BSA. • Place 450 μl of the calcein AM solution (8 μM) in each well of a 24 well tissue culture plate. • Transfer the inserts from above to the wells containing calcein AM and incubate 45 minutes at 37° C. and 5% CO2. • After loading the cells with calcein AM, transfer the inserts to 24 well tissue culture plate wells containing 450 μl trypsin EDTA and incubate for another 10 minutes. • Discard inserts then add 450 μl trypsin neutralizing solution to each well. • Transfer 250 μl of the resulting solution to a 96 well black, flat bottom plate well (each reaction in triplicate). • Read fluorescence at 485 nm excitation and 530 nm emission.

[2] = system: CXCR4; assay: CXCR4 transcription by MSC in hanging drop (3D) culture, RTPCR; assay type: cell-based, human; conditions: Actin normalization, 4 days
Protocol: (§1) This effect is more pronounced if the cells are grown directly on plastic in a 2D conformation. In this example, MSCs are cultured in hanging drop cultures in the presence of Ampion™ and then mRNA is evaluated by RTPCR.
(§2) Materials: • Passage 5 Bone marrow derived human mesenchymal stem cells (HUXMA-01001, Cyagen Biosciences, Sunnyvale Calif.) • Mesenchymal Stem Cell Chondrogenic Differentiation medium (GUXMX-90041, Cyagen Biosciences, Sunnyvale Calif.) • TheraPEAK MSCGM chemically defined Stem cell medium (190632 Lonza) • Lonza MSGM (contains serum) • 10 mM Cobalt chloride in saline, sterile filtered (Sigma) • Saline or 0.9% Sodium chloride for injection ZR Flush (Excelsior Medical, Neptune N.J.) • 0.2 μM syringe filters • Hepes buffered saline, Trypsin/EDTA, Trypsin neutralizing solution (Lonza reagent pack) • 182 cm^2 tissue culture flasks • pipettes and sterile tips • Tissue culture hood, humidified CO2 incubator, water or bead bath • 10 cm^2 petri dishes • Qiagen RNeasy plus spin columns (Qiagen 74134) • Qiagen RT^2 qPCR primer pairs for CXCR4, CXCL12, Collagen 2A1, MMP14, MMP13, Aggrecan, IGA4, GAPDH, and Actin B • Roche Sybr green I master mix and Invitrogen Superscript VILO master mix. • Roche 480 lightcycler Cell Expansion: • Passage 5 HUXMA cells were removed from liquid nitrogen storage and expanded in 182 cm^2 flasks containing 40 mls TheraPEAK MSCGM until 80-90% confluence. • Trypsinize cells using standard protocol and proceed to the next step. […] RNA Isolations and Analysis: • After 4 days, remove the plates from the incubator. • Wash spheroids from the lid with 5 mls of the warm PBS in the bottom of each plate and transfer to 15 ml conical centrifuge tubes. • Spin cells at 1000 RPM for 5 minutes and aspirate the solution. • To each tube, add 350 μl Qiagen RNeasy plus lysis buffer (with 2ME). • Transfer solution to Qiashredder columns and spin at 14,000 rpm for 2 minutes. • Proceed with RNeasy plus protocol following manufacturers recommendations. • Elute RNA from columns using 30 μl RNase free water. cDNA Synthesis and Real Time PCR: • First strand synthesis of cDNA from all samples was then performed following the recommended 20 μl total volume protocol using 10 μl isolated RNA. • All cDNA reactions were then diluted with 30 μl nuclease free water. • Real time PCR was then performed using 5 μl diluted cDNA, Roche Syber green master mix, and Qiagen RT^2 qPCR primer pairs (20 μl total volume). • Relative gene expression determined by delta deta Ct method. […]

[3] = system: CXCL12; assay: CXCL12 transcription by MSC in hanging drop (3D) culture, RTPCR; assay type: cell-based, human; conditions: Actin normalization, 4 days
Protocol: as §1, §2

## [Cl][Co][Cl] [Cobalt, Cobalt chloride]
[1]; chemoattractant 10% FBS
  % increase (migration vs saline): 29.1%
  mean FU: 343.27 FU
  FU 1: 346.49 FU
  FU 2: 329.28 FU
  FU 3: 354.03 FU
[1]; chemoattractant SDF-1
  % increase (migration vs saline): 1.2%
  FU 1: 215.24 FU
  FU 2: 267.07 FU
  FU 3: 285.27 FU
[1]; chemoattractant SDF-1 (final 50 ng/ml)
  mean FU: 255.86 FU
[1]; chemoattractant TGF B3
  % increase (migration vs saline): −6.8%
  FU 1: 274.97 FU
  FU 2: 288.44 FU
  FU 3: 296.9 FU
[1]; chemoattractant TGF B3 (final 10 ng/ml)
  mean FU: 286.77 FU
[2]
  2-^ΔΔCp vs saline, CXCR4: 8.369
  regulation, CXCR4: 8.37
  ΔΔCp vs saline, CXCR4: −3.065
[2]; hanging drop culture
  ΔCp, CXCR4: 11.19
[3]
  2-ΔΔCp vs saline, CXCL12: 0.005
  regulation, CXCL12: −219.79
  ΔΔCp vs saline, CXCL12: 7.78
[3]; hanging drop culture
  ΔCp, CXCL12: 14.91
